Results from US20050025758A1, “Method and compositions for treatment of insulin-dependant diabetes mellitus” (priority 1996, published 2005).
Marks after values point to notes of the source that are not given here.

Tests used:
female NOD mice [1] = assay: Histology: insulitis score and salivary gland infiltration; assay type: in vivo, mouse; conditions: for Insulitis score: mean ± SD, scale 0-4, aerosol 10 consecutive days then weekly from 28 days of age, five non-diabetic mice per group at 105 days of age
Procedure: Mice were killed by CO2 inhalation and the pancreas and salivary glands immediately removed into Bouin's fixative and embedded in paraffin. The insulitis score, a measure of the severity of islet infiltration was determined blindly by two independent investigators by grading and then averaging a minimum of 15 separate islets in serial 6 μm pancreas sections stained with haematoxylin and eosin. The grading scale was: 0, no filtration, islet intact; 1, <10 peri-islet lymphoid cells, islet intact; 2, 10-20 peri-and intra-islet lymphoid cells, islet intact; 3, >20 peri- and intra-islet lymphoid cells, <50% of islet replaced or destroyed; 4, massive lymphoid infiltrate with >50% of islet replaced or destroyed. Infiltration of the salivary glands was graded by the number of lymphoid cells in clusters: 0, no cells; 1, <10 cells; 2, 10-50 cells; 3, >50 cells.
Mice (32/group) were given either aerosol insulin or ovalbumin for 10 consecutive days and then weekly from 28 days of age. At 105 days of age, five non-diabetic mice from each group were killed for pancreas histology. The insulitis score is expressed as mean ±SD. • 1.

female NOD mice [2] = assay: Aerosol treatment and diabetes assessment (blood glucose >11 mM); assay type: in vivo, mouse; conditions: aerosol for 10 consecutive days and then weekly, started at 49 days of age (insulitis well-established)
[3] = test system: splenocytes from aerosol-treated mice; assay: Proliferative responses of splenocytes from aerosol-treated mice ([3H]-thymidine uptake); assay type: cell-based, mouse
Procedure: (§1) Spleen cells from individual normoglycemic mice were treated with a red cell lysis buffer, resuspended and incubated in quadruplicate at 2×10^5/200 μl of serum-free HL-1 medium (Hycor, Irvine, Calif.) containing […] 2-mercaptoethanol, in round-bottom wells with the indicated concentrations of antigen. After 3 days at 37° C. in 5% v/v CO2/air, 100 μl aliquots from each replicate supernatant were collected and stored at −70° C. for cytokine assays; the cells were then pulsed with 3H-thymidine, harvested 16 hours later and counted on a Topcount™ micro-scintillation counter (Packard, Meriden, Conn.). Insulin was recombinant human (Humulin R, Eli Lilly), is used for aerosol treatments. Insulin B-chain peptide corresponding to amino acids 9-23 of mouse insulin II (Peptide Express, Fort Collins, Colo.) was more than 90% pure by HPLC analysis. GAD65 was the recombinant human form expressed with a C-terminal hexahistidine in a baculovirus system and purified by Ni^2+ chelation) affinity chromatography. It was resolved as a single band in SDS-PAGE and was endotoxin-free by the quantitative Limulus lysate assay (BioWhittaker, Walkersville, Md.).
Splenocytes from three mice per group were assayed in quadruplicate in HL-1 serum-free medium. Statistical comparisons (Mann-Whitney U tests) were between the twelve results for each group.

[4] = test system: splenocytes from aerosol-treated mice; assay: Cytokine secretion by splenocytes from aerosol-treated mice (ELISA); assay type: cell-based; conditions: splenocytes with 40 μg/ml mouse insulin II B chain peptide (a 9-23), three days incubation; for IL-4 secretion / IL-10 secretion: lower limit of detection 16 pg/ml
Procedure: as §1
IL-2, -4, -10 and IFN-γ were measured by ELISAs with monoclonal antibody pairs (Pharmingen); the lower limits of detection were 62, 16, 16 and 55 pg/ml, respectively. TGF-β1 was measured with an ELISA kit (Promega) with a lower limit of detection of 16 pg/ml.
Supernatants from replicate culture wells (Table 2) were sampled alter three days incubation and assayed for cytokines.

insulin antibodies = assay: Insulin antibodies in serum, 125I-insulin immunoprecipitation assay; assay type: in vivo, mouse; conditions: sera n=12/group, aerosol-treated mice aged 70-105 days
Procedure: To detect insulin antibodies, ^125lablelled human insulin (approx. 100,000 cpm: specific activity 120 μCi/μg) was incubated with or without excess unlabelled insulin (10 μg/ml) in phosphate-buffered saline containing a mixture of protease inhibitors and serial log dilutions of mouse serum, for 5 days at 4° C. Complexes were then precipitated with rabbit anti-mouse globulin anti-serum, washed and counted in a gamma counter. Positive control sera (guinea pig anti-porcine insulin serum, human IDDM sera) maximally precipitated 37-54% of the total radioactivity. Non-specific binding, in the presence of excess unlabelled insulin, was ≦3.3%.
Insulin antibodies were measured by a standard immunoprecipitation assay with sera (n=12/group) from insulin- and ovalbumin-treated mice aged 70-105 days. […] Defective suppressor T-cell function has been postulated to shift the balance towards Th1 in IDDM (11). It seems unlikely that the reduced T-cell proliferative response to GAD could reflect ‘bystander’ suppression due to the secretion of the Th2 cytokines IL4 and IL-10 (8) by insulin aerosol-induced regulatory cells because, apart from an absence of added insulin in the cultures with GAD, responses to conA and anti-CD3 were not impaired. A direct explanation is that tile reduced response to GAD reflects the protective effect of aerosol insulin on insulitis and β-cell destruction. […]

female NOD mice [5] = assay: Aerosol treatment and diabetes assessment (blood glucose >11 mM); assay type: in vivo, mouse; conditions: for Diabetes frequency: 32 mice/group, aerosol 10 consecutive days then weekly from 28 days of age, at 105 days of age; for diabetes incidence at 156 days of age (median) / diabetes incidence at 240 days of age (median): aerosol for 3 or 10 consecutive days and then weekly from 28 days of age, five separate experiments; for diabetes incidence at 240 days of age (median): p=0.005; for incidence of diabetes by 240 days of age: single aerosol treatment at 28 days of age, female NOD mice
Procedure: Semi-sealed boxes of eight female NOD mice were each aerosolized by connection to a standard, patient electric pump ([…] Aerosol MKV, Anaesthetic Supplies, Sydney, Australia) and Aeroflo nebulizer (Waite & Co., Sydney). Recombinant human insulin (Humulin R, Eli Lilly) or control ovalbumin protein, at 4 mg/ml, was delivered over 10 min. at an air flow rate of 6 litres/min. in a rated droplet size of <5.8 μm, to groups of 24-32 mice. All treatments were given between 0900 and 1100 hours. Protocols and mouse care were approved and supervised by the institutional Animal Ethic Committee. Retro-orbital venous blood was sampled at least every 28 days from 100 days of age and mice considered to be diabetic if their blood glucose, confirmed by a repeat test, was >11 mM. Glucose was measured with BM-Test Glycemic® strips and a Reflolux® II meter (Boehringer-Mannheim), on a drop of blood aspirated via a glass capillary tube from the retro-orbital venous plexus of unanesthetised mice. Aerosol human insulin or ovalbumin were administered in different schedules to female NOD mice from 28 days of age, the earliest time at which insulitis is detectable in the colony of mice, and their incidence of diabetes and severity of insulitis subsequently measured.

NOD female mice = assay: Intranasal insulin, proinsulin or proinsulin peptide 24-36, diabetes in NOD mice; assay type: in vivo, mouse; conditions: for onset and incidence of diabetes: single intranasal dose at either 28 or 56 days of age, compared to control proteins ovalbumin or hen egg lysozyme; for effectiveness on a comparative dose basis: single intranasal dose, NOD female mice
Procedure: Intranasal insulin (FIG. 1), proinsulin (FIG. 2) or proinsulin peptide 24-36 (FIG. 3). Commercially available insulin at 4 mg/ml, or proinsuling or proinsulin peptide 24-36 at 1-4 mg/ml in either insulin carrier solution or mouse tonicity—phosphate buffered saline, was applied in a volume of 10-20 μl to the nostrils of unanaesthetised, restrained NOD female mice at either 28 or 56 days of age.

male NOD mice = assay: Adoptive transfer of diabetes (co-transfer of splenocytes); assay type: in vivo, mouse
NOD mouse = conditions: oral, 1 mg twice weekly; cited from earlier work
[6] = humans, in the absence of absorption-promoting agents; cited from earlier work
[7] = test system: at-risk first-degree relatives with immune markers of IDDM; conditions: intranasal
Description: A clinical trial involves administration of intranasal insulin to at-risk but otherwise healthy first-degree relatives with immune markers of IDDM, including circulating antibodies and T cells reactive with islet autoantigens.
This trial examines the effect of intranasal insulin on the surrogate immune markers of IDDM. The design is randomized, double-blind and placebo-controlled, with a crossover at six months. The placebo is the carrier solution normally used for insulin. […] Treatment is administered daily for 10 consecutive days, then for two consecutive days weekly. After six months, treatment is crossed over (from insulin to placebo, or vice versa).
The administration dose of insulin per nostril is approximately 200 μl of the commercial 4 mg/ml solution. The placebo is the carrier solution in which the insulin is normally dissolved.

[8] = additive: Anti-CD3 antibody (10 μg/ml)
[9] = additive: Concanavalin A (5 μg/ml)
[10] = additive: Human GAD65 (20 μg/ml)
[11] = additive: Human insulin (40 μg/ml)
[12] = additive: Mouse insulin II B-chain (a 9-23) (40 μg/ml)

Substance: ovalbumin [control ovalbumin protein, at 4 mg/ml, delivered as aerosol]
- Insulitis score (female NOD mice [1]): 2.6 ± 0.92
- diabetes incidence at 156 days (female NOD mice [2]): 58%
- [3H]-thymidine uptake (cpm, mean ± SD) [3, 8]: 2643 ± 1126 cpm
- [3H]-thymidine uptake (cpm, mean ± SD) [3, 9]: 2960 ± 494 cpm
- [3H]-thymidine uptake (cpm, mean ± SD) [3, 10]: 1381 ± 650^f cpm
- [3H]-thymidine uptake (cpm, mean ± SD) [3, 11]: 197 ± 82 cpm
- [3H]-thymidine uptake (cpm, mean ± SD) [3, 12]: 435 ± 240^e cpm
- [3H]-thymidine uptake (cpm, mean ± SD) ([3]; additive: None): 208 ± 29^d cpm
- IFN-γ secretion [4]: 423 ± 31 pg/mL
- IL-2 secretion [4]: 186 ± 27 pg/mL
- TGF-β secretion [4]: 162 ± 41
- IL-4 secretion [4]: not detectable
- IL-10 secretion [4]: not detectable
- Precipitation of 125I-insulin radioactivity by antibodies in sera (mean precipitated ± SD) (insulin antibodies): 6.9±2.5%
- Diabetes frequency (female NOD mice [5]): 8/32 (25%)
- diabetes incidence at 156 days of age (median) (female NOD mice [5]): 47%
- diabetes incidence at 240 days of age (median) (female NOD mice [5]): 79%
- incidence of diabetes by 240 days of age (female NOD mice [5]): 88%

Substance: proinsulin peptide 24-36 (AFVNQHLCGSHLV; pro-form; UniProt P01308 24-36, looked up, fragment) [peptide fragment of proinsulin, amino acids 24-36, applied intranasally at 1-4 mg/ml]
- onset and incidence of diabetes (NOD female mice): significantly delayed the onset and decreased the incidence of diabetes
- effectiveness on a comparative dose basis (NOD female mice): more effective than insulin
- adoptive transfer of diabetes by splenocytes from diabetic mice (male NOD mice; whole splenocytes, and splenocytes depleted of CD8 but not CD4 T cells, from female mice given a single intranasal dose at 28 days, taken at 56 days): significantly suppressed the adoptive transfer of diabetes

Substance: porcine insulin [oral porcine insulin]
- onset and incidence of diabetes (NOD mouse): delayed the onset and reduced the incidence of diabetes

Substance: proinsulin
- onset and incidence of diabetes (NOD female mice): significantly delayed the onset and decreased the incidence of diabetes
- effectiveness on a comparative dose basis (NOD female mice): more effective than insulin

Substance: Recombinant human insulin
- onset and incidence of diabetes (NOD female mice): significantly delayed the onset and decreased the incidence of diabetes
- Infiltration of the salivary glands by lymphoid cells (sialitis) (female NOD mice [1]; NOD mice, aerosol treatment): unaffected
- Insulitis score (female NOD mice [1]): 1.2 ± 0.98^1
- Diabetes incidence after transfer decreased (male NOD mice; 1.4×10^5 γδ T cells from aerosol-treated mice co-injected with 2×10^7 spleen cells from diabetic mice, for at least 70 days): 50%
- Diabetes incidence suppressed after adoptive transfer (male NOD mice; co-injection of splenocytes or nylon wool-non-adherent splenocytes from aerosol-treated mice with 2×10^7 diabetic spleen cells, six separate experiments): ≥ 75%
- diabetes incidence at 156 days (female NOD mice [2]): 25%
- systemic uptake from the naso-pharyngeal mucosa [6]: insignificant
- side effects ([7]; 36 high-risk subjects aged 4-30): No significant side effects
- mucosal irritation ([7]; human subjects): only been rare and then minor and transient
- [3H]-thymidine uptake (cpm, mean ± SD) [3, 8]: 2221 ± 533 cpm
- [3H]-thymidine uptake (cpm, mean ± SD) [3, 9]: 3357 ± 812 cpm
- [3H]-thymidine uptake (cpm, mean ± SD) [3, 10]: 424 ± 165^c cpm
- [3H]-thymidine uptake (cpm, mean ± SD) [3, 11]: 134 ± 27 cpm
- [3H]-thymidine uptake (cpm, mean ± SD) [3, 12]: 169 ± 80^b cpm
- [3H]-thymidine uptake (cpm, mean ± SD) ([3]; additive: None): 157 ± 28^a cpm
- IFN-γ secretion [4]: 368 ± 71 pg/mL
- IL-2 secretion [4]: 200 ± 15 pg/mL
- TGF-β secretion [4]: 293 ± 131
- IL-4 secretion [4]: 36 ± 6 pg/mL
- IL-10 secretion [4]: 222 ± 149 pg/mL
- Precipitation of 125I-insulin radioactivity by antibodies in sera (mean precipitated ± SD) (insulin antibodies): 12.7±3.6%
- Diabetes frequency (female NOD mice [5]): 2/32 (6.3%)^2
- clinical complications or abnormalities at autopsy (female NOD mice [5]; NOD mice treated with aerosol or intranasal insulin): no clinical complications, or abnormalities at autopsy
- diabetes incidence at 156 days of age (median) (female NOD mice [5]): 23%
- diabetes incidence at 240 days of age (median) (female NOD mice [5]): 49%
- incidence of diabetes by 240 days of age (female NOD mice [5]): 75%
